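Each compound was tested at five concentrations against cells in 96-well plates for 48 hours. TGI: concentration producing complete growth inhibition.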
Experiments:
Assay in all cases: NCI anticancer screen, dose series, 48 h
[1] = system: T-47D breast
[2] = system: UACC-62 melanoma
[3] = system: MALME-3M melanoma
[4] = system: LOX IMVI melanoma
[5] = system: SW-620 colon
[6] = system: NCI-H226 lung
[7] = system: PC-3 prostate
[8] = system: IGROV1 ovarian
[9] = system: MDA-MB-435
[10] = system: HCT-116 colon
[11] = system: OVCAR-5 ovarian
[12] = system: DU-145 prostate
[13] = system: HT29 colon
[14] = system: OVCAR-3 ovarian
[15] = system: OVCAR-4 ovarian
[16] = system: UO-31 renal
[17] = system: NCI-H23 lung
[18] = system: U251 CNS
[19] = system: UACC-257 melanoma
[20] = system: SK-OV-3 ovarian
[21] = system: SK-MEL-5 melanoma
[22] = system: MOLT-4 leukemia
[23] = system: SK-MEL-2 melanoma
[24] = system: OVCAR-8 ovarian
[25] = system: SF-268 CNS
[26] = system: SK-MEL-28 melanoma
[27] = system: CAKI-1 renal
[28] = system: BT-549 breast
[29] = system: NCI-H460 lung
[30] = system: TK-10 renal
[31] = system: SN12C renal
[32] = system: KM12 colon
[33] = system: A549 NSCLC
[34] = system: COLO 205 colon
[35] = system: HL-60(TB) leukemia
[36] = system: HS 578T breast
[37] = system: HOP-62 NSCLC
[38] = system: RXF 393 renal
[39] = system: NCI-H522 lung
[40] = system: MDA-MB-231 breast
[41] = system: ACHN renal
[42] = system: NCI/ADR-RES ovarian
[43] = system: EKVX NSCLC
[44] = system: SR leukemia
[45] = system: HCT-15 colon
[46] = system: SF-295 CNS
[47] = system: 786-0 renal
[48] = system: HOP-92 NSCLC
[49] = system: M14 melanoma
[50] = system: MCF7 breast
[51] = system: SNB-75 CNS
[52] = system: SF-539 CNS
[53] = system: K-562 leukemia
[54] = system: SNB-19 CNS
[55] = system: RPMI-8226 leukemia
[56] = system: A498 renal
[57] = system: CCRF-CEM leukemia

CCOc1c(N=Nc2ccccc2Cl)c(-c2ccccc2)nn1C(=S)S
TGI [1]: > 100 µM | TGI [2]: > 100 µM | TGI [3]: 95.2 µM | TGI [4]: 46.1 µM | TGI [5]: > 100 µM | TGI [6]: 93.8 µM | TGI [7]: > 100 µM | TGI [8]: > 100 µM | TGI [9]: > 100 µM | TGI [10]: > 100 µM | TGI [11]: > 100 µM | TGI [12]: > 100 µM | TGI [13]: > 100 µM | TGI [14]: 90.1 µM | TGI [15]: > 100 µM | TGI [16]: > 100 µM | TGI [17]: > 100 µM | TGI [18]: > 100 µM | TGI [19]: > 100 µM | TGI [20]: > 100 µM | TGI [21]: 57.9 µM | TGI [22]: 58.2 µM | TGI [23]: > 100 µM | TGI [24]: > 100 µM | TGI [25]: > 100 µM | TGI [26]: > 100 µM | TGI [27]: 70.3 µM | TGI [28]: > 100 µM | TGI [29]: > 100 µM | TGI [30]: > 100 µM | TGI [31]: 34.8 µM | TGI [32]: > 100 µM | TGI [33]: > 100 µM | TGI [34]: 47.5 µM | TGI [35]: > 100 µM | TGI [36]: 75.4 µM | TGI [37]: > 100 µM | TGI [38]: > 100 µM | TGI [39]: 89.9 µM | TGI [40]: 56.5 µM | TGI [41]: > 100 µM | TGI [42]: > 100 µM | TGI [43]: > 100 µM | TGI [44]: 60 µM | TGI [45]: > 100 µM | TGI [46]: > 100 µM | TGI [47]: > 100 µM | TGI [48]: > 100 µM | TGI [49]: > 100 µM | TGI [50]: > 100 µM | TGI [51]: > 100 µM | TGI [52]: 50.4 µM | TGI [53]: > 100 µM | TGI [54]: > 100 µM

O=C(CCN1CCN2c3ccccc3CCC2C1)c1ccc(F)cc1 (stereo unspecified)
TGI [1]: 45.9 µM | TGI [2]: > 100 µM | TGI [3]: 49.2 µM | TGI [4]: > 100 µM | TGI [5]: > 100 µM | TGI [6]: 98.6 µM | TGI [7]: > 100 µM | TGI [8]: 47.9 µM | TGI [9]: 47.4 µM | TGI [10]: > 100 µM | TGI [11]: 62.2 µM | TGI [12]: 90.3 µM | TGI [13]: 41.7 µM | TGI [14]: 71.4 µM | TGI [15]: 37.8 µM | TGI [16]: 40.8 µM | TGI [17]: > 100 µM | TGI [55]: > 100 µM | TGI [18]: > 100 µM | TGI [19]: 97.1 µM | TGI [20]: > 100 µM | TGI [21]: 49.9 µM | TGI [22]: > 100 µM | TGI [23]: 53.3 µM | TGI [24]: > 100 µM | TGI [25]: > 100 µM | TGI [26]: 32.2 µM | TGI [27]: 44.4 µM | TGI [28]: 50 µM | TGI [29]: > 100 µM | TGI [30]: 66 µM | TGI [31]: > 100 µM | TGI [32]: > 100 µM | TGI [56]: > 100 µM | TGI [33]: > 100 µM | TGI [34]: 44.4 µM | TGI [35]: 89.6 µM | TGI [36]: > 100 µM | TGI [57]: > 100 µM | TGI [37]: 52.8 µM | TGI [38]: 43.3 µM | TGI [39]: 35.7 µM | TGI [40]: > 100 µM | TGI [41]: 43.3 µM | TGI [42]: > 100 µM | TGI [43]: 58.5 µM | TGI [44]: > 100 µM | TGI [45]: 55.1 µM | TGI [46]: > 100 µM | TGI [47]: 43.6 µM | TGI [48]: 82.1 µM | TGI [49]: > 100 µM | TGI [50]: 51.3 µM | TGI [51]: 44.8 µM | TGI [52]: 39.9 µM | TGI [53]: > 100 µM | TGI [54]: 47.5 µM
